This note sets out measurements from patent US8119644B2, “Thiadiazole-substituted arylamides as P2X3 and P2X2/3 antagonists” (Roche Palo Alto LLP, priority 2008, dated 2012).

Assay [1] addresses T1, rat P2X3 receptor (Rattus norvegicus, UniProt P49654).
T1 construct: expressed in transfected cells; host or cells: CHO-K1
T1 sequence (P49654 1-397): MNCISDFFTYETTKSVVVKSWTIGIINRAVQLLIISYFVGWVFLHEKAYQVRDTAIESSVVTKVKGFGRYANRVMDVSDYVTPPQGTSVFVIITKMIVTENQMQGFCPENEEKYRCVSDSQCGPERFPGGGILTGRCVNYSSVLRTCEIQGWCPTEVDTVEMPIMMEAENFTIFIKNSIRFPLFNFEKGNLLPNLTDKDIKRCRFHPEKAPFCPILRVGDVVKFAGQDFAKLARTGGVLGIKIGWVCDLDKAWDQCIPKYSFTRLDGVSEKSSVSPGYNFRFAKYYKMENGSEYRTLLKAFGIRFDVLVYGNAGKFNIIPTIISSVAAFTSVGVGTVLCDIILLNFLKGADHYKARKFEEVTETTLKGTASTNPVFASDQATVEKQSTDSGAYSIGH
As to the kind of experiment: P2X3 FLIPR (Fluorometric Imaging Plate Reader) assay, CHO-K1 cells. It is filed as cell-based. To be noted: CHO-K1 cells transfected with cloned rat P2X3; agonist α,β-meATP 1 μM; Fluo-3 calcium fluorescence; read-out: P2X3 (pKi) (converted). On the procedure:
(§1) P2X3/P2X2/3 FLIPR (Fluorometric Imaging Plate Reader) Assay
(§2) CHO-K1 cells were transfected with cloned rat P2X3 or human P2X2/3 receptor subunits and passaged in flasks. 18-24 hours before the FLIPR experiment, cells were released from their flasks, centrifuged, and resuspended in nutrient medium at 2.5×10^5 cells/ml. The cells were aliquoted into black-walled 96-well plates at a density of 50,000 cells/well and incubated overnight in 5% CO2 at 37° C. On the day of the experiment, cells were washed in FLIPR buffer (calcium- and magnesium-free Hank's balanced salt solution, 10 mM HEPES, 2 mM CaCl2, 2.5 mM probenecid; FB). Each well received 100 μl FB and 100 μl of the fluorescent dye Fluo-3 AM [2 μM final conc.]. After a 1 hour dye loading incubation at 37° C., the cells were washed 4 times with FB, and a final 75 μl/well FB was left in each well.
(§3) Test compounds (dissolved in DMSO at 10 mM and serially diluted with FB) or vehicle were added to each well (25 μl of a 4× solution) and allowed to equilibrate for 20 minutes at room temperature. The plates were then placed in the FLIPR and a baseline fluorescence measurement (excitation at 488 nm and emission at 510-570 nm) was obtained for 10 seconds before a 100 μl/well agonist or vehicle addition. The agonist was a 2× solution of α,β-meATP producing a final concentration of 1 μM (P2X3) or 5 μM (P2X2/3). Fluorescence was measured for an additional 2 minutes at 1 second intervals after agonist addition. A final addition of ionomycin (5 μM, final concentration) was made to each well of the FLIPR test plate to establish cell viability and maximum fluorescence of dye-bound cytosolic calcium. Peak fluorescence in response to the addition of α,β-meATP (in the absence and presence of test compounds) was measured and inhibition curves generated using nonlinear regression. PPADS, a standard P2X antagonist, was used as a positive control.

Assay [2] deals with T2, human P2X2/3 receptor (Homo sapiens, UniProt P56373+Q9UBL9).
T2 construct: expressed in transfected cells; host or cells: CHO-K1
T2 sequence (Q9UBL9 1-471): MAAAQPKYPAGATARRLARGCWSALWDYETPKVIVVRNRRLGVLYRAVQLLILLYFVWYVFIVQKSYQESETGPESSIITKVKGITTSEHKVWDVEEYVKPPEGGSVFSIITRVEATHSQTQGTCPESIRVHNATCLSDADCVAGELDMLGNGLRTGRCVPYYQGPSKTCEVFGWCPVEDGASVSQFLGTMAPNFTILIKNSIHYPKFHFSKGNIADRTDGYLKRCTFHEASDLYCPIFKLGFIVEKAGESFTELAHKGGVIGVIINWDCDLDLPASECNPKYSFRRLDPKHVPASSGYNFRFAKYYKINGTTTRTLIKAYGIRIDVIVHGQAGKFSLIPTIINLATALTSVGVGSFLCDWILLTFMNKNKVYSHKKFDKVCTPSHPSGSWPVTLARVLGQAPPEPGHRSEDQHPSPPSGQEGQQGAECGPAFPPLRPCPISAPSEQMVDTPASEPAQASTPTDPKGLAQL
T2 sequence (P56373 1-397): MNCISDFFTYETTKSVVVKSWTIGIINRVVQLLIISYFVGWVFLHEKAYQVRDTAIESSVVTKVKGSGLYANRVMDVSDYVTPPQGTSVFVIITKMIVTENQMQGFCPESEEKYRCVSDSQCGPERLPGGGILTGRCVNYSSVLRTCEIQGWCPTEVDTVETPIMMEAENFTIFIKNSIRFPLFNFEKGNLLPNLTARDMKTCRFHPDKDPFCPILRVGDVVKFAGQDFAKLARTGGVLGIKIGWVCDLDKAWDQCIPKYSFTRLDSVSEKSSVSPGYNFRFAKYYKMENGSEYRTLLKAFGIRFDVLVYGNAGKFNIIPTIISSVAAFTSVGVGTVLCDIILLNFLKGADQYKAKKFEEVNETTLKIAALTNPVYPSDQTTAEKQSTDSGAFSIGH
Description: P2X2/3 FLIPR (Fluorometric Imaging Plate Reader) assay, CHO-K1 cells. The assay is classed as cell-based. To be noted: CHO-K1 cells transfected with human P2X2/3; agonist α,β-meATP 5 μM; Fluo-3 calcium fluorescence; read-out: P2X2/3 (pKi) (converted). As to the method: as §1, §2, §3

Structures are written as SMILES.

For `Cc1ccc(-c2cc(C(=O)N[C@H](C)CO)cc(-c3nsnc3C(C)C)c2)nc1` [Compound 1, N-((R)-2-Hydroxy-1-methyl-ethyl)-3-(4-isopropyl-[1,2,5]thiadiazol-3-yl)-5-(5-methyl-pyridin-2-yl)-benzamide], the figures for the Ki in assay [1] and in assay [2] were 6.92 nM and 72.4 nM, respectively.

Consider `COCC(C)NC(=O)c1cc(-c2ccc(C)cc2)cc(-c2csnn2)c1` (stereo not shown) [Compound 2, 4′-Methyl-5-[1,2,3]thiadiazol-4-yl-biphenyl-3-carboxylic acid (2-methoxy-1-methyl-ethyl)-amide], for which the Ki in assay [1] was 4680 nM.

As for `Cc1ccc(-c2cc(C(=O)NCc3cnc(C)cn3)cc(-c3snnc3C(C)C)c2)nc1` [Compound 3, 3-(4-Isopropyl-[1,2,3]thiadiazol-5-yl)-N-(5-methyl-pyrazin-2-ylmethyl)-5-(5-methyl-pyridin-2-yl)-benzamide], the values for the Ki in assay [1] and in assay [2] were 9.12 nM and 37.2 nM, respectively.

For `Cc1ccc(-c2cc(C(=O)N[C@H](C)CO)cc(-c3snnc3C(C)C)c2)nc1` [Compound 4, N-((R)-2-Hydroxy-1-methyl-ethyl)-3-(4-isopropyl-[1,2,3]thiadiazol-5-yl)-5-(5-methyl-pyridin-2-yl)-benzamide], the Ki in assay [1] was 4.27 nM; in assay [2], 214 nM.

Consider `Cc1ccc(-c2cc(C(=O)NCc3cnc(C)nc3)cc(-c3snnc3C(C)C)c2)nc1` [Compound 5, 3-(4-Isopropyl-[1,2,3]thiadiazol-5-yl)-5-(5-methyl-pyridin-2-yl)-N-(2-methyl-pyrimidin-5-ylmethyl)-benzamide], for which the Ki in assay [1] was 8.91 nM; in assay [2], 33.9 nM.

For the compound `Cc1ccc(-c2cc(C(=O)NCc3ncc(C)cn3)cc(-c3snnc3C(C)C)c2)nc1` [Compound 6, 3-(4-Isopropyl-[1,2,3]thiadiazol-5-yl)-5-(5-methyl-pyridin-2-yl)-N-(5-methyl-pyrimidin-2-ylmethyl)-benzamide], the Ki in assay [1] was 16.6 nM; in assay [2], 105 nM.

On to `Cc1ccc(-c2cc(C(=O)NCc3cnc(C)cn3)cc(-c3nsnc3C(C)C)c2)nc1` [Compound 7, 3-(4-Isopropyl-[1,2,5]thiadiazol-3-yl)-N-(5-methyl-pyrazin-2-ylmethyl)-5-(5-methyl-pyridin-2-yl)-benzamide], for which the Ki was 18.2 nM in assay [1] and 43.7 nM in assay [2].
